Measurements as given in patent US7304074B2, “Substituted 1,5-naphthyridine azolinones” (Hoffmann-La Roche Inc., priority 2005, dated 2007).

Experiments:
Format in all cases: biochemical
CDK4 = CDK4 (Homo sapiens, UniProt P11802); assay: CDK4 kinase inhibition (selectivity)
CDK2 = CDK2 (Homo sapiens, UniProt P24941); assay: CDK2 kinase inhibition (selectivity)
CDK1/Cyclin B = CDK1/Cyclin B (Homo sapiens, UniProt P06493); assay: CDK1/Cyclin B kinase assay (FlashPlate or HTRF); conditions: recombinant human CDK1/Cyclin B, Rb substrate; Ki=IC50/(1+[S]/Km)
Protocol: To determine inhibition of CDK1 activity, either FlashPlate™ (NEN™-Life Science Products) assay or HTRF assay was performed. Both types of kinase assays were carried out using recombinant human CDK1/Cyclin B complex. GST-cyclinB (GST-cycB) and CDK1 cDNA clones in baculovirus vectors were provided by Dr. W. Harper at the Baylor College of Medicine, Houston, Tex. Proteins were co-expressed in High Five™ insect cells and the complex was purified on glutathione Sepharose resin (Pharmacia, Piscataway, N.J.) as previously described (Harper, J. W. et al. Cell 1993, 75, 805-816). A 6×-Histidine tagged truncated form of retinoblastoma (Rb) protein (amino acid 386-928) was used as the substrate for the CDK1/Cyclin B assay (the expression plasmid was provided by Dr. Veronica Sullivan, Department of Molecular Virology, Roche Research Centre, Welwyn Garden City, United Kingdom). The Rb protein is a natural substrate for phosphorylation by CDK1 (see Herwig and Strauss Eur. J. Biochem. Vol. 246 (1997) pp. 581-601 and the references cited therein). The expression of the 62 Kd protein was under the control of an IPTG inducible promoter in an M15 E. coli strain. Cells were lysed by sonication and purification was carried out by binding lysates at pH 8.0 to a Ni-chelated agarose column pretreated with 1 mM imidazole. The resin was then washed several times with incrementally decreasing pH buffers to pH 6.0, and eluted with 500 mM imidazole. Eluted protein was dialysed against 20 mM HEPES pH 7.5, 30% glycerol, 200 mM NaCl, and 1 mM DTT. Purified Rb fusion protein stocks were quantitated for protein concentration, aliquoted, and stored at −70° C.
For the FlashPlate kinase assay, 96-well FlashPlates were coated with Rb protein at 10 μg/ml, using 100 μl per well. Plates were incubated at 4° C. overnight or at room temperature for 3 hours on a shaker. To control for nonspecific phosphorylation, one row of wells was coated with 100 μl/well coating buffer (20 mM HEPES, 0.2 M NaCl). Plates were then washed twice with wash buffer (0.01% Tween 20 in phosphate-buffered saline). Compounds to be tested (“test compounds”) were added to the wells at 5×final concentration. Reactions were initiated by immediate addition of 40 μl reaction mix (25 mM HEPES, 20 mM MgCl2, 0.002% Tween 20, 2 mM DTT, 1 μM ATP, 3.3 nM 33P-ATP) and a sufficient amount of enzyme to give counts that were at least 10-fold above background. Plates were incubated at room temperature on a shaker for 30 minutes. Plates were washed four times with the wash buffer, sealed, and counted on the TopCount scintillation counter (Packard Instrument Co., Downers Grove, Ill.). The percent inhibition of Rb phosphorylation, which is a measure of the inhibition of CDK1 activity, was determined according to the following formula:
[formula] where “test compound” refers to the average counts per minute of the test duplicates, “nonspecific” refers to the average counts per minute when no CDK1/Cyclin B, etc., was added, and “total” refers to the average counts per minute when no compound was added. […] The value of the inhibitor constant Ki is calculated by the following: Ki=IC50/(1+[S]/Km), where [S] is the ATP concentration and Km is Michaelis constant.
The Homogeneous Time Resolved Fluorescence (HTRF) kinase assay was carried out in 96-well polypropylene plates (BD Biosciences, Bedford, Mass.). […]

CDK4, sequence (P11802 whole entry, species assumed): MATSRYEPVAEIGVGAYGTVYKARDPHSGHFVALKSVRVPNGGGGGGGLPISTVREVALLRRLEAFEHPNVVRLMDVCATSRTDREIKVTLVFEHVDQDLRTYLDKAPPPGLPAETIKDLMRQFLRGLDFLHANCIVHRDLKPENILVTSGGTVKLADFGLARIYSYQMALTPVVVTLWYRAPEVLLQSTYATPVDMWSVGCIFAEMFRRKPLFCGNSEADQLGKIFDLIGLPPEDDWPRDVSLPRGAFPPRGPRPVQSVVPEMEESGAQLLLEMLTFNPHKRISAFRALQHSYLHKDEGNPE
CDK4, sequence (P24385 whole entry partner, species assumed): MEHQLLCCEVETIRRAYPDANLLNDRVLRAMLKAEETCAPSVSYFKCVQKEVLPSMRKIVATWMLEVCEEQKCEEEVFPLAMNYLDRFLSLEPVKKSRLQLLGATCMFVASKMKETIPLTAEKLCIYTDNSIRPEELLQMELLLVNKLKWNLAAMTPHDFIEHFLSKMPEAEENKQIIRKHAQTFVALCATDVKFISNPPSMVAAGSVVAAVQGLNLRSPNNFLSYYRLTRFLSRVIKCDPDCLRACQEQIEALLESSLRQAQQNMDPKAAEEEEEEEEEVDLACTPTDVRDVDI
CDK1/Cyclin B, sequence (P06493 whole entry, the tested form may be a part): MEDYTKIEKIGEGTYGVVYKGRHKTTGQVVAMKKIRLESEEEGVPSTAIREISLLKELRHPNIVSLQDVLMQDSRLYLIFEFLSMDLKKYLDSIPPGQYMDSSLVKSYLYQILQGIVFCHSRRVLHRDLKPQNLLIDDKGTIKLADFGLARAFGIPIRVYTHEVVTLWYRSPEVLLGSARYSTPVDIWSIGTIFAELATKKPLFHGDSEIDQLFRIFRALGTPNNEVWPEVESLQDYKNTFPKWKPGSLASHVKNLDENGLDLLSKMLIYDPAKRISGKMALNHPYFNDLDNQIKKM
CDK1/Cyclin B, sequence (P14635 whole entry partner, the tested form may be a part): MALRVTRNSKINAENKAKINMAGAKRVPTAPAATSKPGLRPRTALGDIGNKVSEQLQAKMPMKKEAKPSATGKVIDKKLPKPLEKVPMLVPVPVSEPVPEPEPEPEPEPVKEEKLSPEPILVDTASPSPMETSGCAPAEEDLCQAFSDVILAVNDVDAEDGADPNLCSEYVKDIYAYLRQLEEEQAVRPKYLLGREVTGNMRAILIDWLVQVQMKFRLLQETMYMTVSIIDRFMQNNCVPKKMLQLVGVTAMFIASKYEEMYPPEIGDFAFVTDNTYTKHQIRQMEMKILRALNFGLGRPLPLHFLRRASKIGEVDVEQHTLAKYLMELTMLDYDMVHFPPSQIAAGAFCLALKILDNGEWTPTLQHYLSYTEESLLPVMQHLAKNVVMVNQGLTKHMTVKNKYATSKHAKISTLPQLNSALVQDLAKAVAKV

Row | Ki (CDK4) | Ki (CDK2) | Ki (CDK1/Cyclin B) | Compound
1 | > 10 µM | 0.018 µM | 0.008 µM | CC(C)Oc1c(C#N)cnc2ccc(/C=C3\SC(N)=NC3=O)nc12 [Example 1, 6-(2-Amino-4-oxo-4H-thiazol-5-ylidenemethyl)-4-isopropoxy-[1,5]naphthyridine-3-carbonitrile]
2 | > 10 µM | 0.61 µM | 0.15 µM | CC(C)Oc1c(C#N)cnc2ccc(/C=C3\SC(NCc4ccccc4Cl)=NC3=O)nc12 [Example 2]
3 | > 10 µM | 0.351 µM | 0.078 µM | CC(C)Oc1c(C#N)cnc2ccc(/C=C3\SC(N[C@@H]4C[C@H]4c4ccccc4)=NC3=O)nc12 [Example 3, 4-Isopropoxy-6-[4-oxo-2-(2-phenyl-cyclopropylamino)-4H-thiazol-5-ylidenemethyl]-[1,5]naphthyridine-3-carbonitrile]
4 | > 10 µM | 0.554 µM | 0.047 µM | CC(C)Oc1c(C#N)cnc2ccc(/C=C3\SC(NCc4cccs4)=NC3=O)nc12 [Example 4, 4-Isopropoxy-6-{4-oxo-2-[(thiophen-2-ylmethyl)-amino]-4H-thiazol-5-ylidenemethyl}-[1,5]naphthyridine-3-carbonitrile]
5 | – | > 10 µM | 0.539 µM | Cc1cccc(Cl)c1CNC1=NC(=O)/C(=C/c2ccc3ncc(C#N)cc3n2)S1 [Example 17, 6-[2-(2-Chloro-6-methyl-benzylamino)-4-oxo-4H-thiazol-5-ylidenemethyl]-[1,5]naphthyridine-3-carbonitrile]
